pIC50: −log10 of the molar value.
target: T1, recombinant human 11 β-HSD1 (Homo sapiens, UniProt P28845); assay: 11 β-HSD1 SPA Assay (Scintillation Proximity Assay); type: biochemical
T1 construct: made in house; host or cells: E. coli
Outline: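 E. coli-expressed human enzyme (30-100 nM) with tritiated cortisone 40 nM and NADPH 1 mM in HEPES buffer pH7.4, 2 hours at room temperature. Stopped with protein A SPA beads carrying anti-cortisol antibody and glycyrrhetinic acid; counted after overnight incubation. IC50 from percent inhibition between no-enzyme and no-compound signals.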

T1 sequence (P28845 whole entry): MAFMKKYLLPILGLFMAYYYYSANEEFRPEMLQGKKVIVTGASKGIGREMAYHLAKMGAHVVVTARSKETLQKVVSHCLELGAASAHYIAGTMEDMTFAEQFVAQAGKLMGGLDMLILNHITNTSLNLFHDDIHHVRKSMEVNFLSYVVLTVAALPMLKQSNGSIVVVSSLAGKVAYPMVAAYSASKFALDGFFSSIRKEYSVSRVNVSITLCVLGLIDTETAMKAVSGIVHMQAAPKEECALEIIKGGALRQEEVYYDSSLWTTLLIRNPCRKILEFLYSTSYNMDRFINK

SMILES	pIC50
CC(C)(Oc1ccc(Cl)cc1C(F)F)C(=O)N[C@H]1C[C@H]2CC[C@@H](C1)N2c1ccc(C(=O)Nc2ccon2)cn1 [Example 404, 6-(3-endo-(2-(4-chloro-2-(difluoromethyl)phenoxy)-2-methylpropanamido)-8-azabicyclo[3.2.1]octan-8-yl)-N-(isoxazol-3-yl)nicotinamide]	> 6.70
CC(C)(O)CNC(=O)c1ccc(N2[C@@H]3CC[C@H]2C[C@@H](NC(=O)C(C)(C)Oc2cc(C(C)(C)O)c(Cl)cc2Cl)C3)nc1 [Example 336, 6-[3-endo-({2-[2,4-dichloro-5-(2-hydroxypropan-2-yl)phenoxy]-2-methylpropanoyl}amino)-8-azabicyclo[3.2.1]oct-8-yl]-N-(2-hydroxy-2-methylpropyl)pyridine-3-carboxamide]	> 6.70
CC(C)(Oc1ccc(Cl)cc1Cl)C(=O)N[C@H]1C[C@H]2CC[C@@H](C1)N2c1ccc(NC(=O)NCC(F)(F)F)cc1 [Example 135, 2-[(2,4-dichlorophenyl)oxy]-2-methyl-N-{8-[4-({[(2,2,2-trifluoroethyl)amino]carbonyl}amino)phenyl]-8-azabicyclo[3.2.1]oct-3-endo-yl}propanamide]	> 6.70
CC(C)(Oc1ccc(Cl)cc1C(F)(F)F)C(=O)N[C@H]1C[C@H]2CC[C@@H](C1)N2c1ccc(NS(C)(=O)=O)cn1 [Example 333, 2-{[4-chloro-2-(trifluoromethyl)phenyl]oxy}-2-methyl-N-(8-{5-[(methylsulfonyl)amino]pyridin-2-yl}-8-azabicyclo[3.2.1]oct-3-endo-yl)propanamide]	> 6.70
CC(C)(Oc1c(Cl)cc(F)cc1Cl)C(=O)N[C@H]1C[C@H]2CC[C@@H](C1)N2c1ccc(S(C)(=O)=O)cc1 [Example 239, 2-[(2,6-dichloro-4-fluorophenyl)oxy]-2-methyl-N-{8-[4-(methylsulfonyl)phenyl]-8-azabicyclo[3.2.1]oct-3-endo-yl}propanamide]	> 6.70
CC(C)(Oc1ccc(Cl)cc1Br)C(=O)N[C@H]1C[C@H]2CC[C@@H](C1)N2c1ccc(C(=O)NCC(F)(F)F)cn1 [Example 337, 6-(3-endo-{[2-(2-bromo-4-chlorophenoxy)-2-methylpropanoyl]amino}-8-azabicyclo[3.2.1]oct-8-yl)-N-(2,2,2-trifluoroethyl)pyridine-3-carboxamide]	> 6.70
Nc1ccc(N2[C@@H]3CC[C@H]2C[C@@H](NC(=O)C2(c4ccc(Cl)cc4)CC2)C3)nc1 [Example 61, N-[8-(5-aminopyridin-2-yl)-8-azabicyclo[3.2.1]oct-3-endo-yl]-1-(4-chlorophenyl)cyclopropanecarboxamide]	> 6.70
CC(C)(Oc1nccc2ccccc12)C(=O)N[C@H]1C[C@H]2CC[C@@H](C1)N2c1ccc(C(=O)NCC(F)(F)F)cn1 [Example 354, 6-(3-endo-{[2-(isoquinolin-1-yloxy)-2-methylpropanoyl]amino}-8-azabicyclo[3.2.1]oct-8-yl)-N-(2,2,2-trifluoroethyl)pyridine-3-carboxamide]	> 6.70
CC(C)(Oc1cc(C(C)(C)O)c(Cl)cc1Cl)C(=O)NC1CC2CCC(C1)N2c1ccc(C(=O)NCC(O)C(F)(F)F)cn1 (stereo not drawn) [Example 381, 6-[3-endo-({2-[2,4-dichloro-5-(2-hydroxypropan-2-yl)phenoxy]-2-methylpropanoyl}amino)-8-azabicyclo[3.2.1]oct-8-yl]-N-(3,3,3-trifluoro-2-hydroxypropyl)pyridine-3-carboxamide]	> 6.70
Cc1ccc(C2(C(=O)N[C@H]3C[C@H]4CC[C@@H](C3)N4c3ccc(C(=O)NC4CC4)cn3)CC2)cc1 [Example 23, N-cyclopropyl-6-[3-endo-({[1-(4-methylphenyl)cyclopropyl]carbonyl}amino)-8-azabicyclo[3.2.1]oct-8-yl]pyridine-3-carboxamide]	> 6.70
CC(C)(O)CNC(=O)c1ccc(N2[C@@H]3CC[C@H]2C[C@@H](NC(=O)C(C)(C)Oc2ccc(Cl)cc2Cl)C3)nc1 [Example 396, 6-(3-endo-{[2-(2,4-dichlorophenoxy)-2-methylpropanoyl]amino}-8-azabicyclo[3.2.1]oct-8-yl)-n-(2-hydroxy-2-methylpropyl)pyridine-3-carboxamide]	> 6.70
CC(C)(Oc1ccc(Cl)cc1)C(=O)N[C@H]1C[C@H]2CC[C@@H](C1)N2c1ncc(C(=O)NC2CC2)cn1 [Example 36, 2-[3-endo-({2-[(4-chlorophenyl)oxy]-2-methylpropanoyl}amino)-8-azabicyclo[3.2.1]oct-8-yl]-N-cyclopropylpyrimidine-5-carboxamide]	> 6.70
CC(C)(Oc1ccc(Cl)cc1N1CCOCC1)C(=O)N[C@H]1C[C@H]2CC[C@@H](C1)N2c1ccc(C(=O)NCC(F)(F)F)cn1 [Example 359, 6-[3-endo-({2-[4-chloro-2-(morpholin-4-yl)phenoxy]-2-methylpropanoyl}amino)-8-azabicyclo[3.2.1]oct-8-yl]-N-(2,2,2-trifluoroethyl)pyridine-3-carboxamide]	> 6.70
CC(C)(Oc1cc(CC(=O)O)c(Cl)cc1Cl)C(=O)N[C@H]1C[C@H]2CC[C@@H](C1)N2c1ccc(C(=O)NCC(F)(F)F)cn1 [Example 444, [2,4-dichloro-5-({2-methyl-1-oxo-1-[(8-{5-[(2,2,2-trifluoroethyl)carbamoyl]pyridin-2-yl}-8-azabicyclo[3.2.1]oct-3-endo-yl)amino]propan-2-yl}oxy)phenyl]acetic acid]	> 6.70
CC(C)(Oc1cccc(Cl)c1)C(=O)N[C@H]1C[C@H]2CC[C@@H](C1)N2c1ccc(C(=O)NC2CC2)cn1 [Example 14, 6-[3-endo-({2-[(3-chlorophenyl)oxy]-2-methylpropanoyl}amino)-8-azabicyclo[3.2.1]oct-8-yl]-N-cyclopropylpyridine-3-carboxamide]	> 6.70
CC(C)(Oc1ccc(Cl)cc1C(F)(F)F)C(=O)N[C@H]1C[C@H]2CC[C@@H](C1)N2c1ccc(S(C)(=O)=O)nc1 [Example 299, 2-{[4-chloro-2-(trifluoromethyl)phenyl]oxy}-2-methyl-N-{8-[6-(methylsulfonyl)pyridin-3-yl]-8-azabicyclo[3.2.1]oct-3-endo-yl}propanamide]	> 6.70
CC(C)(Oc1ccc(F)cc1C(C)(C)O)C(=O)N[C@H]1C[C@H]2CC[C@@H](C1)N2c1ccc(C(=O)NCC(F)F)cn1 [Example 467, N-(2,2-difluoroethyl)-6-(3-endo-(2-(4-fluoro-2-(2-hydroxypropan-2-yl)phenoxy)-2-methylpropanamido)-8-azabicyclo[3.2.1]octan-8-yl)nicotinamide]	> 6.70
CC(C)(Oc1cc(C(C)(C)O)c(Cl)cc1Cl)C(=O)N[C@H]1C[C@H]2CC[C@@H](C1)N2c1ccc(C(=O)NCC(F)F)c[n+]1[O-] [Example 479, 6-[3-endo-({2-[2,4-dichloro-5-(2-hydroxypropan-2-yl)phenoxy]-2-methylpropanoyl}amino)-8-azabicyclo[3.2.1]oct-8-yl]-N-(2,2-difluoroethyl)pyridine-3-carboxamide 1-oxide]	> 5.70
CC(C)(Oc1ccc(C(F)(F)F)cn1)C(=O)N[C@H]1C[C@H]2CC[C@@H](C1)N2c1ccc(C(=O)NCC(F)(F)F)cn1 [Example 152, 6-{3-endo-[(2-methyl-2-{[5-(trifluoromethyl)pyridin-2-yl]oxy}propanoyl)amino]-8-azabicyclo[3.2.1]oct-8-yl}-N-(2,2,2-trifluoroethyl)pyridine-3-carboxamide]	> 5.70
CC(C)(Oc1ccc(Cl)cc1Cl)C(=O)N[C@H]1C[C@H]2CC[C@@H](C1)N2c1ccc(NC(=O)NCC(F)(F)F)cn1 [Example 134, 2-[(2,4-dichlorophenyl)oxy]-2-methyl-N-{8-[5-({[(2,2,2-trifluoroethyl)amino]carbonyl}amino)pyridin-2-yl]-8-azabicyclo[3.2.1]oct-3-endo-yl}propanamide]	> 6.70
COCCNC(=O)c1ccc(N2[C@@H]3CC[C@H]2C[C@@H](NC(=O)C(C)Oc2ccc(Cl)cc2Cl)C3)nc1 (stereo partly drawn) [Example 68, 6-[3-endo-({2-[(2,4-dichlorophenyl)oxy]propanoyl}amino)-8-azabicyclo[3.2.1]oct-8-yl]-N-[2-(methyloxy)ethyl]pyridine-3-carboxamide]	> 5.70
CC(C)(Oc1cc(F)c(Cl)cc1Cl)C(=O)N[C@H]1C[C@H]2CC[C@@H](C1)N2c1ccc(C(=O)NCC(F)(F)F)cn1 [Example 90, 6-[3-endo-({2-[(2,4-dichloro-5-fluorophenyl)oxy]-2-methylpropanoyl}amino)-8-azabicyclo[3.2.1]oct-8-yl]-N-(2,2,2-trifluoroethyl)pyridine-3-carboxamide]	> 6.70
CC(C)(Oc1cc(F)c(Cl)cc1Cl)C(=O)N[C@H]1C[C@H]2CC[C@@H](C1)N2c1ccc(S(C)(=O)=O)cn1 [Example 236, 2-[(2,4-dichloro-5-fluorophenyl)oxy]-2-methyl-N-{8-[5-(methylsulfonyl)pyridin-2-yl]-8-azabicyclo[3.2.1]oct-3-endo-yl}propanamide]	> 6.70
C=C(C)c1cc(OC(C)(C)C(=O)N[C@H]2C[C@H]3CC[C@@H](C2)N3c2ccc(C(=O)NCC(F)F)cn2)c(Cl)cc1Cl [Example 478, 6-[3-endo-({2-[2,4-dichloro-5-(prop-1-en-2-yl)phenoxy]-2-methylpropanoyl}amino)-8-azabicyclo[3.2.1]oct-8-yl]-N-(2,2-difluoroethyl)pyridine-3-carboxamide]	> 6.70
C[C@H](NC(=O)c1ccc(N2C3CCC2CC(NC(=O)C(C)(C)Oc2ncc(Cl)cc2Cl)C3)nc1)C(F)(F)F (stereo partly drawn) [Example 417, 6-[3-endo-({2-[(3,5-dichloropyridin-2-yl)oxy]-2-methylpropanoyl}amino)-8-azabicyclo[3.2.1]oct-8-yl]-N-[(2S)-1,1,1-trifluoropropan-2-yl]pyridine-3-carboxamide]	> 6.70
COc1ccc(OC(C)(C)C(=O)N[C@H]2C[C@H]3CC[C@@H](C2)N3c2ccc(S(C)(=O)=O)cc2)cc1 [Example 182, 2-methyl-2-{[4-(methyloxy)phenyl]oxy}-N-{8-[4-(methylsulfonyl)phenyl]-8-azabicyclo[3.2.1]oct-3-endo-yl}propanamide]	> 5.70

From patent US8163771B2, “11 β-HSD1 modulators” (Exelixis, Inc., priority 2008, dated 2012)
